Reference: US20160052955A1, “[…] INHIBITORS FOR TREATING CANCERS” (SLOAN-KETTERING INSTITUTE FOR CANCER RESEARCH, priority 2013, published 2016)

Key:
Format in all cases: biochemical
CARM1 (19-608) = molecular target: T1, CARM1 (19-608) (Homo sapiens, UniProt Q86X55); test: Filter-paper methyltransferase assay, CARM1; conditions: for IC50: substrate H3 (1-40 aa), 300 nM enzyme, 7 h, read-out: IC50 CARM1
T1 construct: CARM1 (19-608)
T1 sequence (Q86X55 19-608): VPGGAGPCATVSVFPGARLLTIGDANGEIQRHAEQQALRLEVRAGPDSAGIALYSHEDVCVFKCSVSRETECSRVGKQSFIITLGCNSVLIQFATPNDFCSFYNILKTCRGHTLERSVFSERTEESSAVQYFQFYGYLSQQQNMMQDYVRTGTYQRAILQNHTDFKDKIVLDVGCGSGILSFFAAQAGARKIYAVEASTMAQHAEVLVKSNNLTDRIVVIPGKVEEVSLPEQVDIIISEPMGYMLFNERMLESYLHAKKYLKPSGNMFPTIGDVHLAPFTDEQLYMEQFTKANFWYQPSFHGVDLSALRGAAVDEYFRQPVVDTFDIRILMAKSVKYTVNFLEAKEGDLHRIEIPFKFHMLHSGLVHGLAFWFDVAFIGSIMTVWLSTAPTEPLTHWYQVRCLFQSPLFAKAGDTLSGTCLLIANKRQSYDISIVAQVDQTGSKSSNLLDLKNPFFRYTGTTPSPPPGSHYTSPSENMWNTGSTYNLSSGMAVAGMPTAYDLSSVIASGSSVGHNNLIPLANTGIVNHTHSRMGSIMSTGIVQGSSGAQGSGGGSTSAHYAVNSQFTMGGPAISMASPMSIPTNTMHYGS

PRMT1 (10-352) = molecular target: T2, PRMT1 (10-352) (Homo sapiens, UniProt Q99873); test: Filter-paper methyltransferase assay, PRMT1; conditions: 100 nm enzyme, substrate RGG, 1.5 h
T2 construct: PRMT1 (10-352)

SMYD2 Full-length = molecular target: T3, SMYD2 Full-length (Homo sapiens, UniProt Q9NRG4); test: Filter-paper methyltransferase assay, SMYD2; conditions: substrate p53 (360-393 aa), 50 nM enzyme, 10 h; read-out: IC50 SMYD2-FL
T3 construct: SMYD2 Full-length
Method: (§1) Methylation Reaction. The 20 μL methylation reaction was carried out at ambient temperature using two mixtures: A. 10 μl of enzyme mixture in the assay buffer containing 50 mM Hepes (pH=8.0), 0.005% Tween-20, 5 μg/ml BSA and 1 mM TCEP; B. 10 μl of a mixture of […], 0.15 μCi [^3H-Me]-SAM cofactor and 3 μM of the corresponding peptide substrate in the same assay buffer. After A and B were mixed for a designated time period, the reaction mixture was examined with our filter-paper assay.
(§2) Filter-paper Assay. This assay relies on Whatman P-81 filter paper, which binds peptides but not SAM. Protein Methyl Transferases (PMTs) transfer ^3H-Me of [^3H-Me]-SAM to peptide substrates and the resultant ^3H-methylated, filter-paper-bound peptide is quantified with a scintillation counter. Briefly, 6 μl of the methylation reaction was spotted onto Whatman P-81 phosphocellulose filter paper (1.2×1.2 cm^2) to immobilize the ^3H-labeled peptide. After drying in air for 20 min, the filter paper was immersed into 20 mL of 50 mM Na2CO3/NaHCO3 buffer (pH=9.2), and washed 5 times for 10 min each time. The washed filter paper was then transferred to a 20 ml scintillation vial containing 1 mL of distilled water and 10 mL of Ultima Gold scintillation cocktail or 7 mL scintillation vial containing 0.5 mL od distilled water and 5 mL of scintillation cocktail (PerkinElmer). The radioactivity was quantified by a Beckman LS6000IC liquid scintillation counter.
(§3) Dose-response Curves and IC50. Twice the PMT concentration was incubated for 10 min with varied concentration of inhibitors (0.1-400 μM stocks), into which 10 μl of the PMT peptide substrate and radioactive cofactor (3 μM of the corresponding peptide and 1.5 μM, 0.15 μCi [^3H-Me]-SAM) were added. After incubating the reaction mixture for the respective reaction time, the conversion was quantified with the filter paper assay as described above. The inhibition was expressed as the percentage between the high control (no inhibition) and the low control (no enzyme) as follows: Percentage Inhibition=[(high control−reading)/(high control−low control)]×100%. Each experiment was performed in triplicate. The IC50 values were obtained by fitting inhibition percentage versus inhibitor concentration using GraphPad Prism5 software.

PRMT3 (211-531) = molecular target: T4, PRMT3 (211-531) (Homo sapiens, UniProt O60678); test: Filter-paper methyltransferase assay, PRMT3; conditions: substrate RGG, 100 nM enzyme, 3 h; read-out: IC50 PRMT3
T4 construct: PRMT3 (211-531)

DOT1L = DOT1L (Homo sapiens, UniProt Q8TEK3); test: Filter-paper methyltransferase assay, DOT1L; conditions: for IC50: substrate nucleosomes, 50 nM enzyme, 6 h
G9a (913-1913) = molecular target: T5, G9a (913-1913) (Homo sapiens, UniProt Q96KQ7); test: Filter-paper methyltransferase assay, G9a; conditions: substrate H3 (1-21 aa), 20 nM enzyme, 1 h
T5 construct: G9a (913-1913)
T5 sequence (Q96KQ7 913-1193 limits assumed): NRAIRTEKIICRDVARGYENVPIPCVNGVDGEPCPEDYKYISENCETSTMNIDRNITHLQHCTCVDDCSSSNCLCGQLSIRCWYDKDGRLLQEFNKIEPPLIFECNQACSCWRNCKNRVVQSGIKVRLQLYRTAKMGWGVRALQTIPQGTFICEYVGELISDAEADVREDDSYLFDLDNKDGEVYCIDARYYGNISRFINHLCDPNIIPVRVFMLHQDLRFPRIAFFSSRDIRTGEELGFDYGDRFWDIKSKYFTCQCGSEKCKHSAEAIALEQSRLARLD

SETDB1Full-length = molecular target: T6, SETDB1Full-length (Homo sapiens, UniProt Q15047); test: Filter-paper methyltransferase assay, SETDB1; conditions: substrate H3 (1-21 aa), 7.5 nM enzyme, 15 h; read-out: IC50 SETDB1-FL
T6 construct: SETDB1Full-length

SUV39H2 (112-410) = molecular target: T7, SUV39H2 (112-410) (Homo sapiens, UniProt Q9H5I1); test: Filter-paper methyltransferase assay, SUV39H2; conditions: substrate H3 (1-21 aa), 5 nM enzyme, 4 h; read-out: IC50 SUV39H2
T7 construct: SUV39H2 (112-410)

GLP1 (951-1235) = molecular target: T8, GLP1 (951-1235) (Homo sapiens, UniProt Q9H9B1); test: Filter-paper methyltransferase assay, GLP1; conditions: substrate H3 (1-21 aa), 10 nM enzyme, 1 h
T8 construct: GLP1 (951-1235)
T8 sequence (Q9H9B1 982-1266): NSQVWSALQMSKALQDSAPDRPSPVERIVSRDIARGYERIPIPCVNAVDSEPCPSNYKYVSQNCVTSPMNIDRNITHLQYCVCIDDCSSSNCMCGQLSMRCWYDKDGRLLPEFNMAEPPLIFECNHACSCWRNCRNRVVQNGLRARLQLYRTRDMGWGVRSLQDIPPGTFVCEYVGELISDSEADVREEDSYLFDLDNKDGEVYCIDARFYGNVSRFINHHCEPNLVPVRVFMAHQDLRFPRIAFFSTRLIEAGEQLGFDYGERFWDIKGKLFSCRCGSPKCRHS
Method: as §1, §2, §3

SMYD3 = molecular target: T9, SMYD3 (Homo sapiens, UniProt Q9H7B4); test: Filter-paper methyltransferase assay, SMYD3; conditions: substrate MAP3K2 (1-350 aa), 125 nM enzyme, 2 h
T9 sequence (Q9H7B4 1-428): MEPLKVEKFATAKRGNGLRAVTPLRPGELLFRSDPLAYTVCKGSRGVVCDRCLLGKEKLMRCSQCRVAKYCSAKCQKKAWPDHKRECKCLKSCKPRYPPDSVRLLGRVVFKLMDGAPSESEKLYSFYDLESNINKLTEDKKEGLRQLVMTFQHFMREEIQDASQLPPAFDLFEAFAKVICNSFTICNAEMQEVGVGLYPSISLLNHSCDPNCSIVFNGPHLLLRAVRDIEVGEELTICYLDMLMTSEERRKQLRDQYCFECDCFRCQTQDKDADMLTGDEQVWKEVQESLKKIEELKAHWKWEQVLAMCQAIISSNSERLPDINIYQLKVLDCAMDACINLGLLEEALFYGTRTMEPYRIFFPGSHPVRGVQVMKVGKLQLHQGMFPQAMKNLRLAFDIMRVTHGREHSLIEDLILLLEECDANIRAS
Method: as §1
Filter-paper Assay. This assay relies on Whatman P-81 filter paper, which binds peptides but not SAM. Protein Methyl Transferases (PMTs) transfer ^3H-Me of [^3H-Me]-SAM to peptide substrates and the resultant ^3H-methylated, filter-paper-bound peptide is quantified with a scintillation counter. […] The radioactivity was quantified by a Beckman LS6000IC liquid scintillation counter.
Dose-response Curves and IC50. […] After incubating the reaction mixture for the respective reaction time, the conversion was quantified with the filter paper assay as described above. The inhibition was expressed as the percentage between the high control (no inhibition) and the low control (no enzyme) as follows: Percentage Inhibition=[(high control−reading)/(high control−low control)]×100%. […]

T2 sequence (Q99873 10-352 isoform Q99873-3): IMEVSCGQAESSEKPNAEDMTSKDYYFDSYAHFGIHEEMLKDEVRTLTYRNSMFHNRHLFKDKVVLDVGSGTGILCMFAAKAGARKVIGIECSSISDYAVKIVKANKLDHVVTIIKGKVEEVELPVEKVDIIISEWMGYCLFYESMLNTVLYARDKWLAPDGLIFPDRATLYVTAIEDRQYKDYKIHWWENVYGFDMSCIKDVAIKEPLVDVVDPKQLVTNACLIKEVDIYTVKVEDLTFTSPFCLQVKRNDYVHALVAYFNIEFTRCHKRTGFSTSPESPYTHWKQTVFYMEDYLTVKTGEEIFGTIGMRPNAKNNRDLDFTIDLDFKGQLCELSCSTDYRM
T4 sequence (O60678 211-531): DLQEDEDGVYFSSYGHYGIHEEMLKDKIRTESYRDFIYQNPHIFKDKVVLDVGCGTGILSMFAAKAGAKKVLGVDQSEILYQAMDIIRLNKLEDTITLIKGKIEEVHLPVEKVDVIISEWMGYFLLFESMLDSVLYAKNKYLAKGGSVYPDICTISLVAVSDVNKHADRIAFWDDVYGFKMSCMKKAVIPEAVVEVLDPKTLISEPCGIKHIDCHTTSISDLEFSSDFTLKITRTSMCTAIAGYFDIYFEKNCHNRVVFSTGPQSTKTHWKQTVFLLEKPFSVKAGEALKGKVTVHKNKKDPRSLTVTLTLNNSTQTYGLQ
T7 sequence (Q9H5I1 112-410): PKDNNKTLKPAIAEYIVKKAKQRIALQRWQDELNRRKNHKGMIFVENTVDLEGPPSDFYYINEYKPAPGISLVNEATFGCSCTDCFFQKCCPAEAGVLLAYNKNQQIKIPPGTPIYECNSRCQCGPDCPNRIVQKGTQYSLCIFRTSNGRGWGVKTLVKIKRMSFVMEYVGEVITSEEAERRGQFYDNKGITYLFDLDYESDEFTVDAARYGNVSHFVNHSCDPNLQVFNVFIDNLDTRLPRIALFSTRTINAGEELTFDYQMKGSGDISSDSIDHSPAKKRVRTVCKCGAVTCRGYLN
T3 sequence (Q9NRG4 whole entry, the tested form may be a part): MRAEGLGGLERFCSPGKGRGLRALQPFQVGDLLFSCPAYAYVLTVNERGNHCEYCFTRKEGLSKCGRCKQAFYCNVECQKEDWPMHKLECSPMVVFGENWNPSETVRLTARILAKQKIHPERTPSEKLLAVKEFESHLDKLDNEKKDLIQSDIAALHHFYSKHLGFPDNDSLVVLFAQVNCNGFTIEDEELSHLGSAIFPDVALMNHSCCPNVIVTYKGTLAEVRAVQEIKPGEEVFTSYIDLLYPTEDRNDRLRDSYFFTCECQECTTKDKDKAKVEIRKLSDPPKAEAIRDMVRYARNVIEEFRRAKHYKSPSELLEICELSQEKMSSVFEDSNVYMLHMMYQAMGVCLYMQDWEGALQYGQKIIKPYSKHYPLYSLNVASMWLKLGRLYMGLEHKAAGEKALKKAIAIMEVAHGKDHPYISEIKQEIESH
DOT1L, sequence (Q8TEK3 whole entry, the tested form may be a part): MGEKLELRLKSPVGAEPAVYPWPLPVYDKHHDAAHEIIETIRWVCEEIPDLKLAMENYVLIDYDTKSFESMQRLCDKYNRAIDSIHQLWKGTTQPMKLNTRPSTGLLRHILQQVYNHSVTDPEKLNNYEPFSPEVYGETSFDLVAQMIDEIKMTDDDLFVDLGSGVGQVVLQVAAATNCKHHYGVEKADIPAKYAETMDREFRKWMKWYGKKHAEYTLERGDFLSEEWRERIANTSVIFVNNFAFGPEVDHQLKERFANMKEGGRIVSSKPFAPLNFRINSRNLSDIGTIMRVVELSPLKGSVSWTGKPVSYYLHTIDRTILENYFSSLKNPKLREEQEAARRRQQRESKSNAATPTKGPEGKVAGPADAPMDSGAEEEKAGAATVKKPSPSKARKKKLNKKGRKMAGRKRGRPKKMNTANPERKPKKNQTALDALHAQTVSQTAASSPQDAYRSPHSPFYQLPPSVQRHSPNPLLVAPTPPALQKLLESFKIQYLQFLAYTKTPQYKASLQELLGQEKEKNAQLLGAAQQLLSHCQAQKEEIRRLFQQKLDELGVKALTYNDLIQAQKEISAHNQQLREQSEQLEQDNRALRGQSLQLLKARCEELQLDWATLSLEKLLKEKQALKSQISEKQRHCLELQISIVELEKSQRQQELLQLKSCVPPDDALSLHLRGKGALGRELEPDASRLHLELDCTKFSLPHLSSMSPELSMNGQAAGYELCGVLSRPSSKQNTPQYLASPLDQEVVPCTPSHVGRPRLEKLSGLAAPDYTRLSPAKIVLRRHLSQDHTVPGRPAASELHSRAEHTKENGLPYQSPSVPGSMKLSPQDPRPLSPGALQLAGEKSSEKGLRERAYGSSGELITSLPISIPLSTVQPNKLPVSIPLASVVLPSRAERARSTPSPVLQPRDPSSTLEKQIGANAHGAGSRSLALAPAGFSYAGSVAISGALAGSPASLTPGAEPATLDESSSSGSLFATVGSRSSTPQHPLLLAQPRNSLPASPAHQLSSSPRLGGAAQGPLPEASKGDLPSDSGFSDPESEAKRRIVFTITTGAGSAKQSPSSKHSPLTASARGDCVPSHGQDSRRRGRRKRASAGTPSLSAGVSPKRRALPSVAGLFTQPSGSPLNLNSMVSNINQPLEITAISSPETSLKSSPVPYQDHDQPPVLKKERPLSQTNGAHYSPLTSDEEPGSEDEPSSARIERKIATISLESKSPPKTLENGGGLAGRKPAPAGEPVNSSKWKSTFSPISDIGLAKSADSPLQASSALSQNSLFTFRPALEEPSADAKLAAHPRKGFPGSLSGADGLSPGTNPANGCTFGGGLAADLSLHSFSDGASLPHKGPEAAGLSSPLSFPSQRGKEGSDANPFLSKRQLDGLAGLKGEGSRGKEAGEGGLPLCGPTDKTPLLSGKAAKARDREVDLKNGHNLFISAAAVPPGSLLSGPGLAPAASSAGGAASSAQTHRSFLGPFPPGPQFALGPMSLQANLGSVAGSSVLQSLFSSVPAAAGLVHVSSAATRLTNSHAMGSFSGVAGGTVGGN

| IC50 (CARM1 (19-608)) | IC50 (PRMT1 (10-352)) | IC50 (SMYD2 Full-length) | IC50 (PRMT3 (211-531)) | IC50 (DOT1L) | IC50 (G9a (913-1913)) | IC50 (SETDB1Full-length) | IC50 (SUV39H2 (112-410)) | IC50 (GLP1 (951-1235)) | inhibitory activity to CARM1 (in words) (CARM1 (19-608)) | inhibitory activity to DOT1L (in words) (DOT1L) | IC50 (SMYD3) | Compound |
| --- | --- | --- | --- | --- | --- | --- | --- | --- | --- | --- | --- | --- |
| 1.9 µM | ~100 µM | 61.6 µM | 5.9 µM | 0.84 µM | > 100 µM | 55 µM | > 100 µM | > 100 µM | – | – | – | Nc1ncnc2c1ncn2[C@@H]1O[C@H](C[C@@H](N)CCCNC(=O)Nc2ccccc2)[C@@H](O)[C@H]1O [Example 26] |
| 0.1 µM | > 100 µM | ~100 µM | 35.4 µM | 0.14 µM | > 100 µM | ~100 µM | > 100 µM | > 100 µM | remarkable inhibitory activity | remarkable inhibitory activity | – | CC(C)(C)c1ccc(NC(=O)NCCC[C@H](N)C[C@H]2O[C@@H](n3cnc4c(N)ncnc43)[C@H](O)[C@@H]2O)cc1 [Example 27] |
| 0.73 µM | > 100 µM | > 100 µM | > 50 µM | 0.07 µM | > 100 µM | – | > 100 µM | > 100 µM | remarkable inhibitory activity | remarkable inhibitory activity | > 100 µM | CC(C)(C)c1ccc(NC(=O)NCCC[C@H](CN)C[C@H]2O[C@@H](n3cnc4c(N)ncnc43)[C@@H](O)C2O)cc1 (stereo partly shown) [Example 28] |
